Data: patent US5556990A, “Polyarylcarbamoylaza- and -carbamoylalkanedioic acids” (Rhone-Poulenc Rorer Pharmaceuticals Inc., priority 1994, dated 1996)
Counter-ions that a name gives are not always drawn.

Target: T1, squalene synthase (Rattus norvegicus, UniProt Q02769)
T1 construct: Microsomes are prepared by centrifugation (100,000 g) and then resuspended in the assay buffer; from tissue; host or cells: liver microsomes of male Sprague-Dawley rats (animals from Taconic Farms)
T1 sequence (Q02769 1-416): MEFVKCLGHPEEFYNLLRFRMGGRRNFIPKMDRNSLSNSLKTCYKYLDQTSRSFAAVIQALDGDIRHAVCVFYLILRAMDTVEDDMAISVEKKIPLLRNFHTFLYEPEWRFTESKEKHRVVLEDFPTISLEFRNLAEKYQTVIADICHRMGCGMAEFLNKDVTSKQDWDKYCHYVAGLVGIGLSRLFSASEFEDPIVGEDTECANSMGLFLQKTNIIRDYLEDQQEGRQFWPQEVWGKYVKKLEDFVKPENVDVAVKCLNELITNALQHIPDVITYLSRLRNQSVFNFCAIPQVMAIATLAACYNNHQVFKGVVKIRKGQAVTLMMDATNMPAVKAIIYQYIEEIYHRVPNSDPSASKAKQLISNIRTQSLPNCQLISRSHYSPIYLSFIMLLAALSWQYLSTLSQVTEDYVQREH
Assay: Squalene Synthase Inhibition Assay (rat liver microsomes, [3H]FPP substrate, HEPES buffer)
Format: biochemical, male Sprague-Dawley rats
Experimental: Squalene Synthase Inhibition Assay
The squalene synthase assay used is described by Amin et al. in "Bisphosphonates Used for the Treatment of Bone Disorders Inhibit Squalene Synthase and Cholesterol Biosynthesis," Journal of Lipid Research, 33, 1657-1663 (1992).
I. Preparation of Assay Substances:
Test solutions are prepared fresh in 100% DMSO or dH2 O. Subsequent dilutions are made in the same solvent. Compounds are tested initially at 1 μM (final concentrations).
Potassium Phosphate (50 mM,) pH 7.4, and HEPES (4-(2-hydroxyethyl)-1-piperazineethanesulfonic acid, 50 mM) pH 7.4 stock buffers are prepared and stored at 4° C. until use.
C) Microsomal Enzyme Preparation:
Fresh livers from male Sprague-Dawley rats (Taconic Farms, Germantown, N.Y.) weighing 150-200 g are collected after exsanguination. All subsequent procedures are performed at 4° C. The liver is homogenized in the assay buffer (50 mM, pH 7.4). Cellular fractions are separated as described by Popjak, G. in "Enzymes of sterol biosynthesis in liver and intermediates of sterol biosynthesis," Meth. Enzymol. 15 393-454 (1969). Microsomes are prepared by centrifugation (100,000 g) and then resuspended in the assay buffer. Microsomes are rehomogenized with a motor-driven Teflon pestle to yield a uniform suspension (~30 mg protein/ml), aliquoted, and stored at -80° C. until use.
II. Squalene Synthase Assay
The procedure is a modification of those described by Popjack (vida supra) and Poulter et al. in "Squalene synthase. Inhibition by ammonium analogues of carbocationic intermediates in the conversion of presqualene diphosphate to squalene" J. Am. Chem. Soc. 111, 3734-3739 (1989). The assay is performed in 1 ml of 50 mM assay buffer, pH 7.4, containing 10 mM MgCl2, 0.5 mM NADPH, microsomes (30 μg protein), a test compound dissolved in distilled water or dimethylsulfoxide, and substrate [^3 H]FPP (0.5 μM, 0.27 Ci/mmol) in a 16×125 mm glass screw-cap tube. All components except [3H]FPP are preincubated for 10 min. at 37° C. The reaction is initiated by the addition of [^3 H]FPP. After 10 min at 37° C., the reaction is terminated by the addition of 1 ml 15% KOH in ethanol. The tubes are incubated at 65° C. for 30 min. to solubilize proteins. The mixture is extracted with 5 ml petroleum ether for 10 min. After freezing the lower aqueous phase, the organic phase is transferred to glass tubes containing 2 ml distilled water. After washing the lower aqueous phase is frozen and the petroleum ether phase is removed and counted with 10 ml Ready Safe liquid scintillation cocktail using a Beckman LS-9000 scintillation counter. DPM values are adjusted against a blank (no enzyme).
The difference in radioactivity in the presence and absence of the test compound is used to determine the level of inhibition. The IC50 values are calculated using a linear regression program of Tallarida and Murray (1987). Tallarida, R. J. and Murray, R. B. Manual of pharmacologic calculations with computer programs. Springer-Verlag, 1987.

| Molecule | IC50 [nM] |
| --- | --- |
| 4-{3-[4-(2-methoxyquinolin-6-yl)phenyl]-1,2,5,6-tetrahydro-pyridylcarbonyl}-3-hydroxy-3-carboxybutanoic acid, disodium salt [Example 12] | 36 |
| CCOC(=O)CC(O)(CC(=O)N[C@@H]1CCCC[C@H]1OCc1ccc(-c2nc3ccccc3o2)cc1)C(=O)OCC (relative stereo) | 10000 |
| O=C(O)CC(O)(CC(=O)N[C@@H]1CCCC[C@H]1OCc1ccc(-c2nc3ccccc3o2)cc1)C(=O)O (relative stereo) [Example 5, 4-[2-α-(4-Benzoxazol-2-ylbenzyloxy)cyclohexyl-β-carbamoyl]-3-hydroxy-3-carboxybutyric acid] | 190 |
| O=C(O)CC(O)(CC(=O)N1CCCC(O)(c2ccc(-c3ccc4ccccc4c3)cc2)C1)C(=O)O (stereo not drawn) [Example 1, 4-[3-Hydroxy-3-(4-naphth2-ylphenyl)piperidin-1-ylcarbonyl]-3-hydroxy-3-carboxybutanoic acid] | 27 |
| O=C(O)CC(O)(CC(=O)N1CCCC(COCc2ccc(-c3nc4ccccc4o3)cc2)C1)C(=O)O (stereo not drawn) [Example 19, 4-[3-(4-(Benzoxazol-2-yl)benzyloxymethyl)piperidin-1-ylcarbonyl]-3-hydroxy-3-carboxybutanoic acid, disodium salt] | 51 |
| CC[C@@H](COCc1ccc(-c2nc3ccccc3o2)cc1)NC(=O)CC(O)(CC(=O)O)C(=O)O (stereo partly drawn) [Example 22, 3-{N-[1-(4-Benzoxazol-2-ylbenzyloxy)but-2-yl]carbamoyl}-3-hydroxy-3-carboxybutanoic acid, disodium salt] | 77 |
| COc1cccc(-c2ccc(C3(O)CCCN(C(=O)CC(O)(CC(=O)O)C(=O)O)C3)cc2)c1 (stereo not drawn) [Example 24, disodium salt] | 100 |
| CC(O)(CNC(=O)C(O)(CC(=O)O)CC(=O)O)c1ccc(-c2ccc3ccccc3c2)cc1 (stereo not drawn) [Example 28, 3-Hydroxy-3-{-N-[2-hydroxy-2-(4-naphthalen-2-yl-phenyl)prop-2-yl]carbamoyl}pentandioic acid, disodium salt] | 100 |
| O=C(O)CC(NC(=O)NC1CCCCC1OCc1ccc(-c2nc3ccccc3o2)cc1)C(=O)O [Example 30, 3-(R)-(N-{2-α-[4-(Benzoxazol-2-yl)benzyloxy]cyclohexyl}-β-carbamoylaza)-3-carboxypropanoic acid] | 2600 |
